Assay results reported in patent US20170190671A1, “BIS(ARYL)CATECHOL DERIVATIVES AS HERBICIDES” (E I DU PONT DE NEMOURS AND COMPANY, priority 2014, published 2017).

Tests used:
Type in all cases: in vivo
[1] = system: sedge, umbrella (small-flower umbrella sedge, Cyperus difformis); assay: Test B flooded paddy; conditions: Cyperus difformis, 336 h; 250 g ai/ha, Flood, 13 to 15 days, scale 0 (no effect) to 100 (complete control); read-out: Plant response rating, Sedge, Umbrella
Procedure, shortened: (§1)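 Flooded 3 cm over soil; compound into paddy water; depth kept constant. Greenhouse 13–15 d.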

[2] = system: barnyardgrass (Echinochloa crus-galli); assay: Test B flooded paddy; conditions: Echinochloa crus-galli, 336 h; 250 g ai/ha, Flood, 13 to 15 days, scale 0 (no effect) to 100 (complete control); read-out: Plant response rating, Barnyardgrass
Procedure, shortened: as §1

[3] = system: ducksalad (Heteranthera limosa); assay: Test B flooded paddy; conditions: Heteranthera limosa, 336 h; 250 g ai/ha, Flood, 13 to 15 days, scale 0 (no effect) to 100 (complete control); read-out: Plant response rating, Ducksalad
Procedure, shortened: as §1

[4] = system: rice (Oryza sativa); assay: Test B flooded paddy; conditions: Oryza sativa, 336 h; 250 g ai/ha, Flood, 13 to 15 days, scale 0 (no effect) to 100 (complete control); read-out: Plant response rating, Rice
Procedure, shortened: as §1

[5] = system: kochia (Kochia scoparia); assay: Test A preemergence; conditions: Bassia scoparia, pre-emergence, 240 h, 0 to 100 scale (0 no effect, 100 complete control), read-out: Kochia plant response rating
Procedure, shortened: (§2)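 Injury scores run from 0, no effect, to 100, complete control, judged by eye against untreated plants roughly 10 days after treatment. Chemicals carried a surfactant in a non-phytotoxic solvent and went onto loam–sand soil preemergence or onto one- to two-leaf seedlings postemergence.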

[6] = system: pigweed (Amaranthus retroflexus); assay: Test A preemergence; conditions: Amaranthus retroflexus, pre-emergence, 240 h, 0 to 100 scale (0 no effect, 100 complete control), read-out: Pigweed plant response rating
Procedure, shortened: as §2

[7] = system: barnyardgrass (Echinochloa crus-galli); assay: Test A preemergence; conditions: Echinochloa crus-galli, pre-emergence, 240 h
Procedure, shortened: as §2

[8] = system: giant foxtail (Setaria faberii); assay: Test A preemergence; conditions: Setaria faberi, pre-emergence, 240 h, 0 to 100 scale (0 no effect, 100 complete control), read-out: Foxtail, Giant plant response rating
Procedure, shortened: as §2

[9] = system: ragweed (common ragweed, Ambrosia elatior); assay: Test A preemergence; conditions: Ambrosia artemisiifolia, pre-emergence, 240 h, 0 to 100 scale (0 no effect, 100 complete control), read-out: Ragweed plant response rating
Procedure, shortened: as §2

[10] = system: Italian ryegrass (Lolium multiflorum); assay: Test A preemergence; conditions: Lolium multiflorum, pre-emergence, 240 h, 0 to 100 scale (0 no effect, 100 complete control), read-out: Ryegrass, Italian plant response rating
Procedure, shortened: as §2

[11] = system: barnyardgrass (Echinochloa crus-galli); assay: Test C preemergence; conditions: Echinochloa crus-galli, pre-emergence, read-out: Plant response rating, Barnyardgrass
Procedure, shortened: (§3)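 Visual ratings (0 none to 100 complete control) were made 13 to 15 days after treatment, relative to controls. Test chemicals, formulated in a non-phytotoxic solvent mixture with surfactant, were applied in the greenhouse preemergence to seeded loam-sand soil or postemergence to plants 2 to 18 cm tall.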

[12] = system: lambsquarters (Chenopodium album); assay: Test C preemergence; conditions: Chenopodium album, pre-emergence, 336 h, scale 0 to 100, read-out: Plant response rating, Lambsquarters
Procedure, shortened: as §3

[13] = system: kochia (Kochia scoparia); assay: Test A postemergence; conditions: Bassia scoparia, post-emergence, 240 h, 0 to 100 scale, read-out: Plant response rating, Kochia
Procedure, shortened: as §2

[14] = system: pigweed (Amaranthus retroflexus); assay: Test A postemergence; conditions: Amaranthus retroflexus, post-emergence, 240 h, 0 to 100 scale, read-out: Plant response rating, Pigweed
Procedure, shortened: as §2

[15] = system: barnyardgrass (Echinochloa crus-galli); assay: Test A postemergence; conditions: Echinochloa crus-galli, post-emergence, 240 h, 0 to 100 scale, read-out: Plant response rating, Barnyardgrass
Procedure, shortened: as §2

[16] = system: wheat (Triticum aestivum); assay: Test A postemergence; conditions: Triticum aestivum, post-emergence, 240 h, 0 to 100 scale, read-out: Plant response rating, Wheat
Procedure, shortened: as §2

[17] = system: giant foxtail (Setaria faberii); assay: Test A postemergence; conditions: Setaria faberi, post-emergence, 240 h, 0 to 100 scale, read-out: Plant response rating, Foxtail, Giant
Procedure, shortened: as §2

[18] = system: galium (catchweed bedstraw, Galium aparine); assay: Test A postemergence; conditions: Galium, post-emergence, 240 h, 0 to 100 scale, read-out: Plant response rating, Galium
Procedure, shortened: as §2

[19] = system: ragweed (common ragweed, Ambrosia elatior); assay: Test A postemergence; conditions: Ambrosia artemisiifolia, post-emergence, 240 h, 0 to 100 scale, read-out: Plant response rating, Ragweed
Procedure, shortened: as §2

[20] = system: Italian ryegrass (Lolium multiflorum); assay: Test A postemergence; conditions: Lolium multiflorum, post-emergence, 240 h, 0 to 100 scale, read-out: Plant response rating, Ryegrass, Italian
Procedure, shortened: as §2

[21] = system: corn (Zea mays); assay: Test A postemergence; conditions: Zea mays, post-emergence, 240 h, 0 to 100 scale
Procedure, shortened: as §2

[22] = system: blackgrass (Alopecurus myosuroides); assay: Test A postemergence; conditions: Alopecurus myosuroides, post-emergence, 240 h, 0 to 100 scale, read-out: Plant response rating, Blackgrass
Procedure, shortened: as §2

## Fc1ccc(F)c(Oc2ncc(Cl)cn2)c1Oc1ncc(Cl)cn1 [Compound 34, 2,2′-[(3,6-difluoro-1,2-phenylene)bis(oxy)]bis[5-chloropyrimidine]]
[1]
  pest or weed control at 250 g/ha: 30%
[2]
  pest or weed control at 250 g/ha: 0%
[3]
  pest or weed control at 250 g/ha: 30%
[4]
  plant injury at 250 g/ha: 0%
[5]; 31 g ai/ha
  pest or weed control at 31 g/ha: 80%
[5]; 125 g ai/ha
  pest or weed control at 125 g/ha: 90%
[6]; 31 g ai/ha
  pest or weed control at 31 g/ha: 100%
[6]; 125 g ai/ha
  pest or weed control at 125 g/ha: 100%
[7]; 31 g ai/ha, 0 to 100 scale (0 no effect, 100 complete control), read-out: Barnyardgrass plant response rating
  pest or weed control at 31 g/ha: 10%
[7]; 125 g ai/ha, 0 to 100 scale, read-out: Plant response rating, Barnyardgrass
  pest or weed control at 125 g/ha: 80%
[8]; 31 g ai/ha
  pest or weed control at 31 g/ha: 70%
[8]; 125 g ai/ha
  pest or weed control at 125 g/ha: 90%
[9]; 31 g ai/ha
  pest or weed control at 31 g/ha: 0%
[9]; 125 g ai/ha
  pest or weed control at 125 g/ha: 10%
[10]; 31 g ai/ha
  pest or weed control at 31 g/ha: 0%
[10]; 125 g ai/ha
  pest or weed control at 125 g/ha: 50%
[11]; 31 g ai/ha, preemergence, scale 0 to 100
  pest or weed control at 31 g/ha: 55%
[11]; 62 g ai/ha, preemergence, scale 0 to 100
  pest or weed control at 62 g/ha: 85%
[11]; 125 g ai/ha, preemergence, scale 0 to 100
  pest or weed control at 125 g/ha: 98%
[11]; Preemergence, 16 g ai/ha, scale 0 to 100 (0 no effect, 100 complete control)
  pest or weed control at 16 g/ha: 20%
[12]; 31 g ai/ha, preemergence
  pest or weed control at 31 g/ha: 90%
[12]; 62 g ai/ha, preemergence
  pest or weed control at 62 g/ha: 100%
[12]; 125 g ai/ha, preemergence
  pest or weed control at 125 g/ha: 98%
[12]; Preemergence, 16 g ai/ha
  pest or weed control at 16 g/ha: 80%
[13]; 31 g ai/ha
  pest or weed control at 31 g/ha: 50%
[13]; 125 g ai/ha
  pest or weed control at 125 g/ha: 70%
[14]; 31 g ai/ha
  pest or weed control at 31 g/ha: 70%
[14]; 125 g ai/ha
  pest or weed control at 125 g/ha: 80%
[15]; 31 g ai/ha
  pest or weed control at 31 g/ha: 0%
[15]; 125 g ai/ha
  pest or weed control at 125 g/ha: 50%
[16]; 31 g ai/ha
  plant injury at 31 g/ha: 0%
[16]; 125 g ai/ha
  plant injury at 125 g/ha: 30%
[17]; 31 g ai/ha
  pest or weed control at 31 g/ha: 30%
[17]; 125 g ai/ha
  pest or weed control at 125 g/ha: 70%
[18]; 31 g ai/ha
  pest or weed control at 31 g/ha: 80%
[18]; 125 g ai/ha
  pest or weed control at 125 g/ha: 90%
[19]; 31 g ai/ha
  pest or weed control at 31 g/ha: 30%
[19]; 125 g ai/ha
  pest or weed control at 125 g/ha: 50%
[20]; 31 g ai/ha
  pest or weed control at 31 g/ha: 10%
[20]; 125 g ai/ha
  pest or weed control at 125 g/ha: 50%
[21]; 31 g ai/ha
  Corn plant response rating (crop injury, 0 = no effect, 100 = complete kill) at 31 g/ha: 0%
[21]; 125 g ai/ha
  Corn plant response rating (crop injury, 0 = no effect, 100 = complete kill) at 125 g/ha: 10%
[22]; 31 g ai/ha
  pest or weed control at 31 g/ha: 60%
[22]; 125 g ai/ha
  pest or weed control at 125 g/ha: 70%
